Test results as given in patent US20140357577A1, “HIV Membrane Fusion Inhibitors” (priority 2011, published 2014).
Starred links: 1 amine or outer side, 2 acyl side, 3 side chain; linkers in the order of their positions; H or OH if unused. Positions of bridges follow the written chain, without caps; N, C: chain ends. Non-standard residues stand in square brackets, D forms with d. Primed or numbered codes have the meaning given here. *: point of attachment. B21″ = 2,7-dimethylnaphtyl linker joining two Cys, c1cc2ccc(C[*:2])cc2cc1C[*:1]; tBuAla = CC(C)(C)C[C@H](N)C(=O)O; Suc = O=C(CCC(=O)[*:2])[*:1]; Pentanoyl = CCCCC(=O)*; B1 = not defined here; B2 = not defined here

What was measured:
[1] = system: HIV wild type virus strain IIIB; test: Standard Anti-Viral-Experiment (AVE), HIV-1 replication assay in MT4-LTR-EGFP cells, wild type IIIB; type: cell-based; details: 3 days, EGFP signal
Source text: • Standard Anti-Viral-Experiment “AVE” (wild type HIV strain IIIB+HIV strain HXB2D side directed mutants V38A and Q40H)
The HIV-1 replication assay measures virus replication (HIV wild type virus strain 111B or HXB2D, or a HIV mutant virus strain HXB2D with mutation V38A or Q40H in the gp41 gene) as an induction of enhanced green fluorescent protein (EGFP) expression. The indicator MT4-LTR-EGFP cells contain an EGFP gene under the control of the HIV-1 LTR promoter sequence. Successful HIV-1 infection results in viral Tat protein expression and subsequent induction of EGFP expression. Compounds/peptides inhibiting HIV-1 infection are expected to reduce EGFP expression as compared to the untreated HIV-infected control.
Serial 4-fold dilutions of test compounds/peptides were mixed with HIV-1 (IIIB, HXB2D, or a HXB2D mutant virus (V38A or Q40H)) and MT4-LTR-EGFP cells and incubated at 37° C. After 3 days, the wells were examined for EGFP expression using an argon laser-scanning microscope. The effective compound/peptide concentration inhibiting 50% of the virus-induced EGFP signal (EC50) was determined by linear interpolation of the EGFP signal vs. logarithm of the compound concentration; (T20, C34 and Sifuvirtide were added as reference compounds). For the V38A and Q40H mutant viruses, results were reported as a fold change in EC50, as compared with a drug-susceptible wild type strain HXB2D, which forms the backbone of the mutant virus. • Standard AVE (50% Human Serum)

HIV-IIIB + 50% HS = test: Standard AVE (50% Human Serum), HIV-1 replication assay in MT4-LTR-EGFP cells; type: cell-based; details: fold change vs EC50 in the assay without human serum
Source text: The HIV-1 replication assay (with 50% human serum) measures virus replication as an induction of enhanced green fluorescent protein (EGFP) expression, in the presence of 50% human serum. The indicator MT4-LTR-EGFP cells contain an EGFP gene under the control of the HIV-1 LTR promoter sequence. Successful HIV-1 infection results in viral Tat protein expression and subsequent induction of EGFP expression. Compounds/peptides inhibiting HIV-1 infection are expected to reduce EGFP expression as compared to the untreated HIV-infected control. Compounds/peptides binding to human serum are expected to have a reduced activity for inhibiting the virus in the assay.
Serial 4-fold dilutions of test compounds/peptides were mixed with HIV-1 and MT4-LTR-EGFP cells and incubated at 37° C., in the presence of 50% human serum. After 3 days, the wells were examined for EGFP expression using an argon laser-scanning microscope. The effective compound/peptide concentration inhibiting 50% of the virus-induced EGFP signal (EC50) was determined by linear interpolation of the EGFP signal vs. logarithm of the compound concentration; T20, C34 and Sifuvirtide were added as reference compounds. Results were reported as a fold change in EC50, as compared with the acquired EC50 in the assay without human serum.

[2] = molecular target: gp41 of HIV-1 strain HXB2D with mutation V38A (HIV-1 strain HXB2D, UniProt P04578); test: cell-based or functional assay

| Molecule | EC50 [1] [nM] | HIV-IIIB + 50% HS (Fold change in EC50) (HIV-IIIB + 50% HS) | fold change in EC50, HIV-HXB2D V38A mutant [2] [fold] |
| --- | --- | --- | --- |
| AC-ACYAACIEALIRAAQEQQEKNEAALR-NH2 [Peptide 89] | 18 | 3 |  |
| AC-ACYAACIEALIRAAREQQEKNEAALR-NH2 [Peptide 84] | 13 | 4 |  |
| AC-ACYWACIEALIRAAQEQQEKNEAALR-NH2 [Peptide 63] | 7 | 3 |  |
| AC-ECYAACIEALIRAAQEQQEKNEAALR-NH2 [Peptide 74] | 53 | 0.9 |  |
| ANYAALIEALIRKAQEQQEKNEAALR [Peptide 5] | 48 | 0.5 |  |
| ANYLALIEALIRAAQEQQEKNEAALR [Peptide 6] | 5 | 0.7 |  |
| Ac-ACYAACIDALIRAAQEQQEKNEAALR-NH2 [Peptide 70] | 23 | 1 |  |
| Ac-ACYAACIEALIRAAQEQQEKNEAALR-NH2 [Peptide 64] | 56 | 0.8 |  |
| Ac-ACYAACIEALIRAAQEQQEKNEAALR-NH2 [Peptide 65] | 17 | 1 |  |
| Ac-ACYAACIEALIRAAQEQQEKNEALLR-NH2 [Peptide 73] | 21 | 3 |  |
| Ac-ACYAACIEALIRKAQEQQEKNEAALR-NH2 [Peptide 71] | 8 | 1 |  |
| Ac-ACYAACIEELIRKAQEQQEKNEAALR-NH2 [Peptide 72] | 15 | 0.6 |  |
| Ac-ACYAAcIEALIRAAQEQQEKNEAALR-NH2 [Peptide 83] | 54 | 3 |  |
| Ac-ACYFACIEALIRAAQEQQEKNEAALR-NH2 [Peptide 61] | 4 | 4 |  |
| Ac-ACYIACIEALIRAAQEQQEKNEAALR-NH2 [Peptide 57] | 4 | 2 |  |
| Ac-ACYIACIEALIRAAQEQQEKNEAALR-NH2 [Peptide 58] | 4 | 6 |  |

| Molecule | EC50 [1] [nM] | HIV-IIIB + 50% HS (Fold change in EC50) (HIV-IIIB + 50% HS) | fold change in EC50, HIV-HXB2D V38A mutant [2] [fold] |
| --- | --- | --- | --- |
| Ac-ACYLACIEALIRAAQEQQEKNEAALL-NH2 [Peptide 54] | 3 | 2 |  |
| Ac-ACYLACIEALIRAAQEQQEKNEAALR-NH2 [Peptide 56] | 4 | 2 |  |
| Ac-ACYVACIEALIRAAQEQQEKNEAALR-NH2 [Peptide 62] | 10 | 2 |  |
| Ac-CYAACIEALIRAAQEQQEKNEAALR-NH2 [Peptide 21] | 5 | 3 |  |
| Ac-CYAACIEALIRAAQEQQEKNEAALR-NH2 [Peptide 22] | 35 | 2 |  |
| Ac-aCYAACIEALIRAAQEQQEKNEAALr-NH2 [Peptide 75] | 29 | 4 |  |
| Ac-aCYAACIEALIRAAQEQQEKNEAALr-NH2 [Peptide 76] |  | 2 |  |
| ENYTRQIYRILEESQEQQDRNERDLL [Slfuvlrtlde-PBD, reference compound] | 36400 | 0.8 |  |
| Penlanoyl-ECYLACIEALIRAAQEQQEKNEAALR-NH2 (Pentanoyl-ECYLACIEALIRAAQEQQEKNEAALR-NH2; cysteine pairing not given here) [Peptide 39] | 7 | 5 |  |
| Suc-ACYAACIEALIRAAQEQQEKNEAALR-NH2 (cysteine pairing not given here) [Peptide 67] | 8 | 0.8 |  |
| Ac-CYAACIEALIRAAQEQQEKNEAALR-NH2 (linker 1-5 via B21″; SMILES CC[C@H](C)[C@H](NC(=O)[C@H](CC(C)C)NC(=O)[C@H](C)NC(=O)[C@H](CCC(=O)O)NC(=O)[C@@H](NC(=O)[C@@H]1CSCc2ccc3ccc(cc3c2)CSC[C@H](NC(C)=O)C(=O)N[C@@H](Cc2ccc(O)cc2)C(=O)N[C@@H](C)C(=O)N[C@@H](C)C(=O)N1)[C@@H](C)CC)C(=O)N[C@@H](CCCNC(=N)N)C(=O)N[C@@H](C)C(=O)N[C@@H](C)C(=O)N[C@@H](CCC(N)=O)C(=O)N[C@@H](CCC(=O)O)C(=O)N[C@@H](CCC(N)=O)C(=O)N[C@@H](CCC(N)=O)C(=O)N[C@@H](CCC(=O)O)C(=O)N[C@@H](CCCCN)C(=O)N[C@@H](CC(N)=O)C(=O)N[C@@H](CCC(=O)O)C(=O)N[C@@H](C)C(=O)N[C@@H](C)C(=O)N[C@@H](CC(C)C)C(=O)N[C@@H](CCCNC(=N)N)C(N)=O) [peptide 22] |  |  | 19 |
| Ac-CYAACIEALIRAAQEQQEKNEAALR-NH2 (linker 1-5 via B1; reading uncertain) [peptide 21] |  |  | 75 |
| Suc-CYLACIEELIRKAQEQQEKNEAAL[tBuAla]-NH2 (linker 1-5 via B2; reading uncertain) [peptide 23] |  |  | 45 |
| Suc-ENYLRLIEELIRKAQEQQEKNEAALR-NH2 (SMILES CC[C@H](C)[C@H](NC(=O)[C@H](CC(C)C)NC(=O)[C@H](CCC(=O)O)NC(=O)[C@H](CCC(=O)O)NC(=O)[C@@H](NC(=O)[C@H](CC(C)C)NC(=O)[C@H](CCCNC(=N)N)NC(=O)[C@H](CC(C)C)NC(=O)[C@H](Cc1ccc(O)cc1)NC(=O)[C@H](CC(N)=O)NC(=O)[C@H](CCC(=O)O)NC(=O)CCC(=O)O)[C@@H](C)CC)C(=O)N[C@@H](CCCNC(=N)N)C(=O)N[C@@H](CCCCN)C(=O)N[C@@H](C)C(=O)N[C@@H](CCC(N)=O)C(=O)N[C@@H](CCC(=O)O)C(=O)N[C@@H](CCC(N)=O)C(=O)N[C@@H](CCC(N)=O)C(=O)N[C@@H](CCC(=O)O)C(=O)N[C@@H](CCCCN)C(=O)N[C@@H](CC(N)=O)C(=O)N[C@@H](CCC(=O)O)C(=O)N[C@@H](C)C(=O)N[C@@H](C)C(=O)N[C@@H](CC(C)C)C(=O)N[C@@H](CCCNC(=N)N)C(N)=O) [peptide 20] |  |  | 8 |
| Suc-ENYLALIEELIRKAQEQQEKNEAALR-NH2 (SMILES CC[C@H](C)[C@H](NC(=O)[C@H](CC(C)C)NC(=O)[C@H](C)NC(=O)[C@H](CC(C)C)NC(=O)[C@H](Cc1ccc(O)cc1)NC(=O)[C@H](CC(N)=O)NC(=O)[C@H](CCC(=O)O)NC(=O)CCC(=O)O)C(=O)N[C@@H](CCC(=O)O)C(=O)N[C@@H](CCC(=O)O)C(=O)N[C@@H](CC(C)C)C(=O)N[C@H](C(=O)N[C@@H](CCCNC(=N)N)C(=O)N[C@@H](CCCCN)C(=O)N[C@@H](C)C(=O)N[C@@H](CCC(N)=O)C(=O)N[C@@H](CCC(=O)O)C(=O)N[C@@H](CCC(N)=O)C(=O)N[C@@H](CCC(N)=O)C(=O)N[C@@H](CCC(=O)O)C(=O)N[C@@H](CCCCN)C(=O)N[C@@H](CC(N)=O)C(=O)N[C@@H](CCC(=O)O)C(=O)N[C@@H](C)C(=O)N[C@@H](C)C(=O)N[C@@H](CC(C)C)C(=O)N[C@@H](CCCNC(=N)N)C(N)=O)[C@@H](C)CC) [peptide 19] |  |  | 22 |
